Laboratory results taken from patent US10786547B2, “Compositions, articles of manufacture and methods for treating cancer” (Biokine Therapeutics Ltd., priority 2015, dated 2020).
Entries after “also recorded” stand apart in the source; their conditions may differ. [ ]: non-standard residue; d: D form. The star is where a group is joined. Benzoyl(4-F) = O=C(c1ccc(F)cc1)*; Cit = NC(=O)NCCC[C@H](N)C(=O)O

Key:
CXCR4 receptor = CXCR4 receptor (Homo sapiens, UniProt P61073); details: cited from earlier work
CXCR4 receptor, sequence (P61073 whole entry): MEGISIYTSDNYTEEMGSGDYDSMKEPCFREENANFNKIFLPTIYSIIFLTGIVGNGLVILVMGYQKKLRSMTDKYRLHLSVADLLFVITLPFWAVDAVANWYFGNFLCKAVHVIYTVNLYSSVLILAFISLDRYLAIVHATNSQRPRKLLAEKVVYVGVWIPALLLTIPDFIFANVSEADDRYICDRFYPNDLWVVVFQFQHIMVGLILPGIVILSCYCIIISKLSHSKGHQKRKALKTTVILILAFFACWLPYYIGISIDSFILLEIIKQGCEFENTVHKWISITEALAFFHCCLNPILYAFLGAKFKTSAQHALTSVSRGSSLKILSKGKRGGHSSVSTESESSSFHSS

[1] = system: long term repopulating stem cells; details: mice, single BL-8040 injection; cited from earlier work
[2] = in vivo
[3] = system: myeloid leukemia, hematopoietic tumors and non-small cell lung cancer; details: cited from earlier work
[4] = system: CD34+ hematopoietic stem/progenitor cells (HSPC); details: multiple myeloma patients, combined treatment of BL-8040 and G-CSF, single aphaeresis procedure; cited from earlier work
[5] = system: immune cells including immature stem/progenitor cells, T cells and NK cells; assay: in-vivo administration, mobilization of immune and stem/progenitor cells; details: to the peripheral blood
[6] = system: immune cells including immature stem/progenitor cells, T cells and NK cells; details: "It has been shown"; cited from earlier work

In the case of “4F-benzoyl-Arg-Arg-Nal-Cys-Tyr-Cit-Lys-DLys-Pro-Tyr-Arg-Cit-Cys-Arg-NH2 ({Benzoyl(4-F)}-RR[Nal]CY[Cit]K[dK]PYR[Cit]CR-NH2; cysteine pairing not given here) [BL-8040]”, the receptor occupancy (CXCR4 receptor; CXCR4 receptor) is listed as “long receptor occupancy”, the “affinity of binding to the CXCR4 receptor” value (CXCR4 receptor) is listed as “high affinity” and the “mobilization of long term repopulating stem cells” value [1] is listed as “mobilized long term repopulating stem cells sufficient for transplantation”. The safety and tolerability [2] was “safe and well tolerated”, the toxicity against tumors [3] was “toxic against several tumors such as myeloid leukemia, hematopoietic tumors and non-small cell lung cancer” and the “collection of CD34+ hematopoietic stem/progenitor cells (HSPC)” value [4] was “enabled the collection of high number of CD34+ hematopoietic stem/progenitor cells (HSPC) in a single aphaeresis procedure”. The “mobilization of immune cells” value [5] was “induces rapid mobilization of a variety of immune cells including immature stem/progenitor cells as well as fully differentiated T cells and NK cells; also recorded: induce rapid mobilization of hematopoietic stem/progenitor cells and mesenchymal stem cells as well as T cells, B cells, NK cells, NKT cells and ImDC to the peripheral blood” and the “mobilization of CD34+ hematopoietic stem/progenitor cells (HSPC)” value [6] was “induces mobilization of CD34+ hematopoietic stem/progenitor cells (HSPC) that can be further used for transplantation”.
